Active and inactive are the calls of the source.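 How the source made its calls: active means at least one rat sex group has a carcinogenic potency value and tumor site recorded; inconclusive means only rat studies were judged inadequate by the national testing program; inactive means no potency or tumor site, with negative rat experiments.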 *1 amine or outer side, *2 acyl side, *3 side chain or, on linkers, in order; H or OH if unused. Where a SMILES comes first, the peptide text is derived from it. Bridges are numbered along the chain shown (N, C = ends). Roman numbers before positions name the chains, in order. [ ]: non-standard residue; d: D form. Actinocin(9to1) = Cc1c2oc3c(C)ccc(C(=O)[*:1])c3nc-2c(C(=O)[*:2])c(N)c1=O; NMeV = CN[C@H](C(=O)O)C(C)C; Sar = CNCC(=O)O
Tested on: rat chronic carcinogenicity bioassay, TD50
Test: DSSTox (CPDBAS) Carcinogenic Potency Database Summary Rat Bioassay Results
Conditions: for Potency: stronger effect = lower value
Procedure, shortened: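 Chronic long-term rat cancer bioassays from literature and NCI/NTP, taking the most positive result per sex. TD50 in mmol converted to a 1–100 Activity Score from log10(1/TD50). Mixtures lacking TD50 scored 50.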

[1] = TD50_Rat_Note: TD50 is harmonic mean of more than one positive test
[2] = TD50_Rat_Note: no positive results, TargetSites_Rat_Female: no positive results
[3] = TD50_Rat_Note: no positive results
[4] = TargetSites_Rat_Female: no positive results
[5] = TargetSites_Rat_Female: mammary gland
[6] = TD50_Rat_Note: TD50 is harmonic mean of more than one positive test, TargetSites_Rat_Female: liver
[7] = TD50_Rat_Note: positive test results only by intraperitoneal or intravenous injection, TD50 is harmonic mean of more than one positive, TargetSites_Rat_Female: peritoneal cavity
[8] = TD50_Rat_Note: TD50 is harmonic mean of more than one positive test, TargetSites_Rat_Female: hematopoietic system

C[C@H]1C(=O)O[C@@H]2CCN3CC=C(COC(=O)[C@](C)(O)[C@]1(C)O)[C@H]23
Potency [1]: 0.94 mg/kg/day

Oc1ccccc1
outcome [2]: inactive; no positive results

O=C(O)c1cc(N=Nc2ccc(S(=O)(=O)Nc3ccccn3)cc2)ccc1O
Potency (TD50_Rat_Note: TD50 is harmonic mean of more than one positive test, TargetSites_Rat_Female: kidney, urinary bladder): 1590 mg/kg/day

NC(=O)N(CCO)N=O
Potency (TD50_Rat_Note: TD50 is harmonic mean of more than one positive test, greater than ten-fold variation among TD50 values for positive res, TargetSites_Rat_Female: hematopoietic system, mammary gland): 0.244 mg/kg/day

O=S1OCC2C(CO1)C1(Cl)C(Cl)=C(Cl)C2(Cl)C1(Cl)Cl (configuration not stated)
outcome [2]: inactive; no positive results

CC(C)(Oc1ccc(C2CC2(Cl)Cl)cc1)C(=O)O (configuration not stated)
Potency (TD50_Rat_Note: TD50 is harmonic mean of more than one positive test, harmonic mean of TD50 includes a value for upper 99% confidence li, TargetSites_Rat_Female: stomach): 1.97 mg/kg/day

Nc1ccc([N+](=O)[O-])cc1
outcome [2]: inactive; no positive results

Cn1cc[nH]c1=S
Potency (TD50_Rat_Note: TD50 is harmonic mean of more than one positive test, TargetSites_Rat_Female: thyroid gland): 1.14 mg/kg/day

O=c1cc[nH]c(=O)[nH]1
Potency (TD50_Rat_Note: TD50 is harmonic mean of more than one positive test, greater than ten-fold variation among TD50 values for positive res, TargetSites_Rat_Female: urinary bladder): 671 mg/kg/day

O=C(c1ccccc1)C(O)c1ccccc1 (configuration not stated)
outcome [2]: inactive; no positive results

COC(N)=O
Potency (TD50_Rat_Note: TD50 is harmonic mean of more than one positive test, greater than ten-fold variation among TD50 values for positive res, TargetSites_Rat_Female: liver): 56.6 mg/kg/day

Clc1ccc(Sc2cc(Cl)c(Cl)cc2Cl)cc1
outcome [2]: inactive; no positive results

Clc1ccc2c(c1)Oc1ccc(Cl)cc1O2
outcome [2]: inactive; no positive results

C[C@](N)(Cc1ccc(O)c(O)c1)C(=O)O
outcome [2]: inactive; no positive results

COc1cc2c(c3oc(=O)c4c(c13)CCC4=O)C1C=COC1O2 (configuration not stated)
Potency (TD50_Rat_Note: TD50 is harmonic mean of more than one positive test, harmonic mean of TD50 includes a value for upper 99% confidence li, TargetSites_Rat_Female: large intestine, liver): 0.0032 mg/kg/day

NS(=O)(=O)c1cc(C(=O)O)c(NCc2ccco2)cc1Cl
outcome [2]: inactive; no positive results

COc1cc(/C=C/C(=O)CC(=O)/C=C/c2ccc(O)c(OC)c2)ccc1O
outcome [3]: inactive; no positive results
outcome [2]: inactive; no positive results

NCC(=O)O
Potency (TargetSites_Rat_Female: kidney): 25700 mg/kg/day

C1CCC(C(CC2CCCCN2)C2CCCCC2)CC1 (configuration not stated)
outcome [2]: inactive; no positive results

COC(=O)C1=C(C)NC(C)=C(C(=O)OCCN2CCN(C(c3ccccc3)c3ccccc3)CC2)C1c1cccc([N+](=O)[O-])c1 (configuration not stated)
outcome [2]: inactive; no positive results

COc1cc2c(c3oc(=O)c4c(c13)CCOC4=O)C1C=COC1O2 (configuration not stated)
Potency (TD50_Rat_Note: TD50 is harmonic mean of more than one positive test, TD50_Rat_mmol was not calculated for this mixture, but Activiity S): 0.00299 mg/kg/day

Nc1cc(S(=O)(=O)[O-])cc2cc(S(=O)(=O)[O-])c(N=Nc3ccc(-c4ccc(N=Nc5c(S(=O)(=O)[O-])cc6cc(S(=O)(=O)[O-])cc(N)c6c5O)c(O)c4)cc3O)c(O)c12.[Cu].[Cu].[Na+].[Na+].[Na+].[Na+]
Potency [4]: 1570 mg/kg/day

COCCl
Potency: 5.5 mg/kg/day

CC(N)Cc1ccccc1 (configuration not stated)
outcome [2]: inactive; no positive results

Nc1nc(N)nc(-c2ccccc2)n1
outcome [3]: inactive; no positive results

O=[N+]([O-])c1ccc(Cl)c([N+](=O)[O-])c1
outcome [3]: inactive; no positive results

CC(=O)Nc1ccc(-c2ccccc2)cc1
Potency [5]: 1.18 mg/kg/day

CCOc1ccc(NC(C)=O)cc1
Potency (TD50_Rat_Note: TD50 is harmonic mean of more than one positive test, TargetSites_Rat_Female: ear Zymbals gland, mammary gland, nasal cavity, urinary bladder): 1250 mg/kg/day

O=C(O)[C@@H]1[C@H](C(=O)O)[C@@]2(Cl)C(Cl)=C(Cl)[C@]1(Cl)C2(Cl)Cl
Potency [6]: 40.8 mg/kg/day

Nc1ccc(N)cc1
outcome [2]: inactive; no positive results

O=C(Nc1nc(-c2ccc([N+](=O)[O-])o2)cs1)C(F)(F)F
Potency [5]: 6.79 mg/kg/day

Cc1ccccc1S(N)(=O)=O
Potency (TargetSites_Rat_BothSexes: urinary bladder): 3960 mg/kg/day

O=NN(CCCl)C(=O)N[C@@H]1[C@@H](O)[C@H](O)[C@@H](CO)O[C@@H]1O
Potency [7]: 0.0375 mg/kg/day

NC(=O)NC1NC(=O)NC1=O (configuration not stated)
outcome [2]: inactive; no positive results

CC(C)C=O
outcome [2]: inactive; no positive results

CCNNC(=O)[C@@H]1[C@H](c2cc(OC)c(OC)c(OC)c2)c2cc3c(cc2[C@H](O)[C@H]1CO)OCO3
outcome [3]: inactive; no positive results

[N-]=[N+]=[N-]
outcome [2]: inactive; no positive results

O=NN(CC(F)(F)F)CC(F)(F)F
outcome [2]: inactive; no positive results

N#Cc1ccc(C2CCCc3cncn32)cc1 (configuration not stated)
outcome [2]: inactive; no positive results

O=NN1CCSCC1
Potency (TD50_Rat_Note: TD50 is harmonic mean of more than one positive test, TargetSites_Rat_Female: esophagus, oral cavity): 5.39 mg/kg/day

OCc1ccccc1
outcome [2]: inactive; no positive results

CCC(Cl)CCC(Cl)C(Cl)CC(Cl)C(Cl)C(Cl)CCl (configuration not stated)
Potency (TD50_Rat_Note: TD50 is harmonic mean of more than one positive test, TD50_Rat_mmol was not calculated for this mixture, but Activiity S, TargetSites_Rat_Female: liver, thyroid gland): 222 mg/kg/day

ClC(Cl)=C(Cl)Cl
Potency [8]: 145 mg/kg/day

COc1cc(OC)c2c3c(c(=O)oc2c1)CCC3
outcome [3]: inactive; no positive results

CN(C)/N=N/c1nc[nH]c1C(N)=O
Potency (TargetSites_Rat_Female: hematopoietic system, mammary gland, uterus): 0.71 mg/kg/day

Cc1c2oc3c(C)ccc(C(=O)N[C@@H]4C(=O)N[C@H](C(C)C)C(=O)N5CCC[C@H]5C(=O)N(C)CC(=O)N(C)[C@@H](C(C)C)C(=O)O[C@@H]4C)c3nc-2c(C(=O)N[C@@H]2C(=O)N[C@H](C(C)C)C(=O)N3CCC[C@H]3C(=O)N(C)CC(=O)N(C)[C@@H](C(C)C)C(=O)O[C@@H]2C)c(N)c1=O (I: T[dV]P[Sar][NMeV] / II: T[dV]P[Sar][NMeV]; ester I:1-I:C, II:1-II:C; linker I:N-II:N via Actinocin(9to1))
Potency [7]: 0.00111 mg/kg/day

C[C@H](CCc1ccccc1)NC[C@H](O)c1ccc(O)c(C(N)=O)c1
outcome [2]: inactive; no positive results

CC1CN(N=O)CC(C)N1C(=O)c1ccccc1 (configuration not stated)
Potency (TargetSites_Rat_Female: stomach): 9.66 mg/kg/day

CC1(C)S[C@@H]2[C@H](NC(=O)[C@H](N)c3ccccc3)C(=O)N2[C@H]1C(=O)O
outcome [2]: inactive; no positive results

C=CC1CC=CCC1 (configuration not stated)
outcome (TD50_Rat_Note: only experiment is NCI/NTP bioassay inadequate, TargetSites_Rat_Female: NTP bioassay inadequate): ntp bioassay inadequate

Cc1cc(O)ccc1O
outcome [3]: inactive; no positive results

[C-]1=CC=CC1.[C-]1=CC=CC1.[Cl-].[Cl-].[Ti+4]
outcome [2]: inactive; no positive results

Nc1ncc([N+](=O)[O-])s1
Potency (TargetSites_Rat_Female: kidney, lung, mammary gland): 44.6 mg/kg/day

O=NN1CCCCC1
Potency (TD50_Rat_Note: TD50 is harmonic mean of more than one positive test, TargetSites_Rat_BothSexes: esophagus, liver, nasal cavity): 1.43 mg/kg/day

CCCN(CCC)N=O
Potency (TargetSites_Rat_Female: esophagus, liver, nasal cavity): 0.186 mg/kg/day

Cc1ccc(N=Nc2c(O)ccc3ccccc23)c([N+](=O)[O-])c1
Potency [6]: 1170 mg/kg/day

COC(=O)C1=C(C)NC(C)=C(C(=O)OCCc2ccc(N3CCN(C(c4ccccc4)c4ccccc4)CC3)cc2)C1c1cccc([N+](=O)[O-])c1 (configuration not stated)
outcome [2]: inactive; no positive results

CC(=O)N[C@@H](CS)C(=O)O
outcome [3]: inactive; no positive results

Oc1ccc(O)cc1
Potency [8]: 82.8 mg/kg/day

CCSCC[C@H](N)C(=O)O
Potency (TD50_Rat_Note: TD50 value is overestimated as upper 99% confidence limit from study with 100% tumor incidence but no lifetable, harmoni): 4.97 mg/kg/day

CC(C)(C)NCC(O)c1ccc(O)c(CO)c1 (configuration not stated)
Potency (TD50_Rat_Note: TD50 is harmonic mean of more than one positive test, TargetSites_Rat_Female: mesovarium): 40 mg/kg/day

Cc1cc(C)c(N)cc1C
Potency (TD50_Rat_Note: TD50 is harmonic mean of more than one positive test, TargetSites_Rat_Female: liver, lung): 33.6 mg/kg/day
Potency (TD50_Rat_Note: no positive results are statistically significant): 98.5 mg/kg/day

O=S1(=O)N=C(O)c2ccccc21
outcome [3]: inactive; no positive results

CC1CO1 (configuration not stated)
Potency (TD50_Rat_Note: TD50 is harmonic mean of more than one positive test, greater than ten-fold variation among TD50 values for positive res, TargetSites_Rat_Female: mammary gland, nasal cavity, stomach): 74.4 mg/kg/day

CCn1nc(C)c2c1C(c1ccccc1)=NCC(=O)N2
outcome [2]: inactive; no positive results

FC(F)=C(F)F
Potency (TD50_Rat_Note: TD50 is harmonic mean of more than one positive test, TargetSites_Rat_Female: hematopoietic system, kidney, liver, vascular system): 107 mg/kg/day

COC(=O)[C@H]1[C@H]2C[C@@H]3c4[nH]c5cc(OC)ccc5c4CCN3C[C@H]2C[C@@H](OC(=O)c2cc(OC)c(OC)c(OC)c2)[C@@H]1OC
Potency [4]: 0.306 mg/kg/day

O=[N+]([O-])/C=C/c1ccccc1
outcome [2]: inactive; no positive results

Cn1c(=O)c2[nH]cnc2n(C)c1=O
outcome [2]: inactive; no positive results

CCN(CC)c1cc2oc3cc(=[N+](CC)CC)c(C)cc-3c(-c3ccc(S(=O)(=O)O)cc3S(=O)(=O)[O-])c2cc1C
outcome [2]: inactive; no positive results

CCN(CC)C(=S)S
outcome [2]: inactive; no positive results

CC(=O)CN(CC(O)CO)N=O (configuration not stated)
Potency (TargetSites_Rat_Female: esophagus, oral cavity, stomach): 0.0352 mg/kg/day

Clc1cccc(-c2ccc(Cl)c(Cl)c2Cl)c1Cl
Potency (TD50_Rat_Note: TD50 is harmonic mean of more than one positive test, TD50_Rat_mmol was not calculated for this mixture, but Activiity S, TargetSites_Rat_Female: liver): 4.8 mg/kg/day

Cn1c(N)nc2ncc(-c3ccccc3)cc21
Potency (TD50_Rat_Note: TD50 is harmonic mean of more than one positive test, TargetSites_Rat_Female: large intestine, mammary gland): 1.78 mg/kg/day

CCCN(N=O)C(=N)N[N+](=O)[O-]
Potency [1]: 1.31 mg/kg/day

From PubChem BioAssay AID1208 (EPA DSSTox, 2008)
